Test results: patent publication US20180256673A1, “METHODS FOR TREATING FUNGAL INFECTIONS” (priority 2015, published 2018)
Values after ≈ are worked out from the molar mass of the structure shown. Values joined by “and” are separate entries in the source; they are usually repeats but may differ in a detail not shown here. Equal entries are not always repeated. Where two headings read alike, the source gives them in different places. Starred links: 1 amine or outer side, 2 acyl side, 3 side chain; linkers in the order of their positions; H or OH if unused. Positions of bridges follow the written chain, without caps; N, C: chain ends. Non-standard residues stand in square brackets, D forms with d. Residues, ends and D or L forms follow the SMILES beside them. *: point of attachment. pTerphenylCO(4''-OnC5H11) = CCCCCOc1ccc(-c2ccc(-c3ccc(C(=O)*)cc3)cc2)cc1; Orn(4R-OH,5R-OH) = O=C([C@H](C[C@@H](O)[C@@H](O)N[*:3])N[*:1])[*:2]; hTyr(3S-OH,4S-OH) = N[C@H](C(=O)O)[C@H](O)[C@@H](O)c1ccc(O)cc1; Pro(3S-OH,4S-Me) = C[C@H]1CN[C@H](C(=O)O)[C@H]1O; Hyp = O=C(O)[C@@H]1C[C@@H](O)CN1

Legend:
[1] = tested on: C. glabrata ATCC 90030, ATCC 2001; type: cell-based, Candida glabrata; conditions: for Freq. (replicate mutation frequency): replicate plates 1-3; for Plate concentration: SDA, minimum concentration to cleanly inhibit growth
Description: (§1) Spontaneous mutant selection. […] Three individual colonies from each strain were used to start cultures in RPMI. […] One milliliter aliquots were spread onto SDA plates containing drug with sterile glass beads. Starting viable count was enumerated by triplicate plating of serial dilutions of the starting inoculum. […] Glycerol stocks of putative mutant colonies were stored at −80° C. […] Spontaneous mutation frequencies were calculated by dividing the number of resistant colonies on a given plate by the starting inoculum plated. A subset of mutants (weighted heavily towards those selected with CMP1) were then evaluated by MIC and sequencing of FKS gene hot spot regions.

C. krusei ATCC 6258 = type: cell-based, Candida krusei
Description: as §1

C. albicans NRRL Y-477 = assay: microbe, parasite or virus in culture; type: cell-based, Candida albicans; conditions: for MIC: Candida albicans
C. parapsilosis CP02 = assay: microbe, parasite or virus in culture; type: cell-based, Candida parapsilosis; conditions: for MIC: Lodderomyces parapsilosis
[2] = tested on: C. albicans vaginal isolates; assay: Susceptibility testing of VVC clinical isolates at pH 7 and 4 (CLSI M27-A3); type: cell-based, Candida albicans; conditions: Candida albicans
[3] = tested on: C. parapsilosis vaginal isolates; assay: as above; type: cell-based, Candida parapsilosis
Candida glabrata = assay: microbe, parasite or virus in culture; type: cell-based

CCCCCOc1ccc(-c2ccc(-c3ccc(C(=O)N[C@H]4C[C@@H](O)[C@@H](O)NC(=O)[C@@H]5[C@@H](O)[C@@H](C)CN5C(=O)[C@H]([C@@H](C)O)NC(=O)[C@H]([C@H](O)[C@@H](O)c5ccc(O)cc5)NC(=O)[C@@H]5C[C@@H](O)CN5C(=O)[C@H]([C@@H](C)O)NC4=O)cc3)cc2)cc1 [ANID, anidulafungin] ({pTerphenylCO(4''-OnC5H11)}-[Orn(4R-OH,5R-OH)]T[Hyp][hTyr(3S-OH,4S-OH)]T[Pro(3S-OH,4S-Me)]; lactam 1-C)
Median mutation frequency ([1]; ATCC 2001): 7.02E−08
Freq. (replicate mutation frequency) ([1]; ATCC 2001): 7.02E−08 and 6.71E−08 and 1.09E−07
Median mutation frequency ([1]; ATCC 90030): 9.01E−09
Freq. (replicate mutation frequency) ([1]; ATCC 90030): 4.41E−09 and 2.10E−08 and 9.01E−09
Plate concentration ([1]; ATCC 2001): 0.125 µg/mL
Plate concentration ([1]; ATCC 90030): 0.125 µg/mL
Median mutation frequency (C. krusei ATCC 6258): <3.38E−09
Plate concentration (C. krusei ATCC 6258; SDA, minimum concentration to cleanly inhibit growth): 0.25 µg/mL
Freq. (replicate mutation frequency) (C. krusei ATCC 6258; replicate plates 1-3): <3.38E−09 (2×) and <3.51E−09
MIC (C. albicans NRRL Y-477; NRRLY477, 48 h, NRRL Y-477 P20-1, selecting drug ANID, Fks1 HS1 S645Y, 48 h read): 4 µg/mL (≈ 3.51 µM)
MIC (C. albicans NRRL Y-477; NRRLY477, 48 h, NRRL Y-477 P20-1, selecting drug CMP1, 48 h read): 0.125 µg/mL (≈ 0.11 µM)
MIC (C. albicans NRRL Y-477; NRRLY477, NRRL Y-477 P20-1, selecting drug CAS): 0.015 µg/mL (≈ 0.0132 µM)
MIC (C. albicans NRRL Y-477; NRRLY477, read-out: MIC P20, NRRL Y-477, total population after 20 passages with the selecting drug, MIC of selecting drug): 4 µg/mL
MIC fold-shift (C. albicans NRRL Y-477; NRRL Y-477, WT to P20): 256
MIC fold-shift (C. parapsilosis CP02; CP02, WT to P20): 1
MIC (C. parapsilosis CP02; CP02, CP02 P20-1, selecting drug ANID): 4 µg/mL (≈ 3.51 µM)
MIC (C. parapsilosis CP02; CP02, CP02 P20-1, selecting drug CAS): 4 µg/mL (≈ 3.51 µM)
MIC (C. parapsilosis CP02; CP02, CP02 P20-1, selecting drug CMP1): 8 µg/mL (≈ 7.02 µM)
MIC (C. parapsilosis CP02; CP02, read-out: MIC P20, CP02, total population after 20 passages with the selecting drug, MIC of selecting drug): 4 µg/mL
MIC90 ([2]; 24 h, pH 4): 0.03 µg/mL (≈ 0.0263 µM)
MIC90 ([2]; 24 h, pH 7): 0.008 µg/mL (≈ 0.00702 µM)
MIC90 ([2]; 48 h, pH 4): 0.06 µg/mL (≈ 0.0526 µM)
MIC ([2]; 48 h, pH 4, fluconazole-resistant isolate 1, pH 4): 0.03 µg/mL (≈ 0.0263 µM)
MIC ([2]; 48 h, pH 4, fluconazole-resistant isolate 2, pH 4): 0.03 µg/mL (≈ 0.0263 µM)
MIC ([2]; 48 h, pH 4, fluconazole-resistant isolate 3, pH 4): 0.03 µg/mL (≈ 0.0263 µM)
MIC ([2]; 48 h, pH 4, fluconazole-resistant isolate 4, pH 4): 0.06 µg/mL (≈ 0.0526 µM)
MIC ([2]; 48 h, pH 4, fluconazole-resistant isolate 5, pH 4): 0.125 µg/mL (≈ 0.11 µM)
MIC ([2]; 48 h, pH 4, fluconazole-resistant isolate 6, pH 4): 0.06 µg/mL (≈ 0.0526 µM)
MIC ([2]; 48 h, pH 4, fluconazole-resistant isolate 7, pH 4): 0.06 µg/mL (≈ 0.0526 µM)
MIC ([2]; 48 h, pH 4, fluconazole-resistant isolate 8, pH 4): 0.06 µg/mL (≈ 0.0526 µM)
MIC ([2]; 48 h, pH 4, fluconazole-resistant isolate 9, pH 4): 0.25 µg/mL (≈ 0.219 µM)
MIC ([2]; 48 h, pH 4, fluconazole-resistant isolate 10, pH 4): 0.06 µg/mL (≈ 0.0526 µM)
MIC90 ([2]; 48 h, pH 7): 0.03 µg/mL (≈ 0.0263 µM)
MIC ([2]; 48 h, pH 7, fluconazole-resistant isolate 1, pH 7): 0.008 µg/mL (≈ 0.00702 µM)
MIC ([2]; 48 h, pH 7, fluconazole-resistant isolate 2, pH 7): 0.03 µg/mL (≈ 0.0263 µM)
MIC ([2]; 48 h, pH 7, fluconazole-resistant isolate 3, pH 7): 0.008 µg/mL (≈ 0.00702 µM)
MIC ([2]; 48 h, pH 7, fluconazole-resistant isolate 4, pH 7): 0.008 µg/mL (≈ 0.00702 µM)
MIC ([2]; 48 h, pH 7, fluconazole-resistant isolate 5, pH 7): 0.016 µg/mL (≈ 0.014 µM)
MIC ([2]; 48 h, pH 7, fluconazole-resistant isolate 6, pH 7): 0.008 µg/mL (≈ 0.00702 µM)
MIC ([2]; 48 h, pH 7, fluconazole-resistant isolate 7, pH 7): 0.008 µg/mL (≈ 0.00702 µM)
MIC ([2]; 48 h, pH 7, fluconazole-resistant isolate 8, pH 7): 0.008 µg/mL (≈ 0.00702 µM)
MIC ([2]; 48 h, pH 7, fluconazole-resistant isolate 9, pH 7): 0.125 µg/mL (≈ 0.11 µM)
MIC ([2]; 48 h, pH 7, fluconazole-resistant isolate 10, pH 7): 0.008 µg/mL (≈ 0.00702 µM)
MIC90 ([3]; 24 h, pH 4): 1 µg/mL (≈ 0.877 µM)
MIC90 ([3]; 24 h, pH 7): 2 µg/mL (≈ 1.75 µM)
MIC90 ([3]; 48 h, pH 4): 2 µg/mL (≈ 1.75 µM)
MIC90 ([3]; 48 h, pH 7): 4 µg/mL (≈ 3.51 µM)
Cumulative % of isolates inhibited at MIC 0.015 μg/mL (Candida glabrata): (1.0) %
Cumulative % of isolates inhibited at MIC 0.03 μg/mL (Candida glabrata): (12.0) %
Cumulative % of isolates inhibited at MIC 0.06 μg/mL (Candida glabrata): (74.0) %
Cumulative % of isolates inhibited at MIC 0.12 μg/mL (Candida glabrata): (95.0) %
Cumulative % of isolates inhibited at MIC 0.25 μg/mL (Candida glabrata): (95.0) %
Cumulative % of isolates inhibited at MIC 0.5 μg/mL (Candida glabrata): (95.0) %
Cumulative % of isolates inhibited at MIC 1 μg/mL (Candida glabrata): (95.0) %
Cumulative % of isolates inhibited at MIC 2 μg/mL (Candida glabrata): (98.0) %
